Measurements: patent US10729710B2, “Catecholamine prodrugs for use in the treatment of Parkinson's disease” (H. Lundbeck A/S, priority 2017, dated 2020)
Counter-ions that a name gives are not always drawn. One block for each compound: values may come before it.

Assays:
[1] = PK experiments in rats: plasma compound (I) after oral dosing of prodrugs; format: in vivo, Han Wistar rats; details: Wistar rats, FIG. 2, doses equal to 287 μg/kg of compound (I)
Procedure: (§1) Plasma was placed on water-ice following collection. Final storage at approximately −70° C.
Mobile phase B: Acetonitrile. […] Flow rate 0.5 mL/min.
The rats had unrestricted access to the diet.
Mobile phase B: Acetonitrile+0.2% formic acid. […] Flow rate 0.3 mL/min.
Han Wistar rats were supplied by Envigo, UK. […] The rats received a standard laboratory diet Teklad 2014C. The rats had unrestricted access to the diet.

hepatocytes from rat = experiment: Conversion to compound (I) in rat hepatocytes; format: in vitro ADME; details: 1 μg/mL, 37° C., 0.25-60 minutes, FIG. 7a
Procedure: (§2) The cell concentration at incubation was 1×10^6 viable cells/mL. The incubations were performed in glass tubes at 37° C. with a total incubation volume of 3.5 mL and with duplicate incubations for each test item. The 3.5 mL of hepatocyte suspension was equilibrated for 10 minutes in a water bath set to 37° C. where after the incubations were initiated by adding 3.5 μL of a stock solution of the test item in DMSO (Dimethyl sulfoxide) and gently inverting the tubes. The final solvent concentration in the incubations was 0.1% DMSO. Samples of 600 μL were withdrawn from the incubations at the pre-determined time points of 0.25, 5, 15, 30 and 60 minutes after ensuring homogeneity of hepatocyte suspensions. The withdrawn volume was added to 1 mL Nunc cryo tubes on wet ice containing 60 μL of ice cold ascorbic acid (100 mg/mL) and 30 μL of ice cold 100 mM saccharic acid 1.4-lactone in 0.5 M citric acid. The tubes were mixed and 35 μL of a solution of ice cold 20% formic acid was added. The tubes were mixed thoroughly and stored at −80° C. awaiting analysis. Analysis method and Instrumentation used for analysis of (I) from dosing (Id-ia), (Id-ib), (Id-iia) and (Id-iib), were the one described in Examples 4 and 5 below in the section “Instrumentation used for analysis of compound (I) from dosing of compounds (Ic), (Id-ia), (Id-ib), (Id-iia), (Id-iib), (Id-iab) and (Id-iiab).”
(§3) Analysis method and Instrumentation used for analysis of (I) from dosing (Id-iab) and (Id-iiab) consisted of mixing equal aliquots of the samples and precipitation solution (acetonitrile (MeCN) with 10% methanol (MeOH) and 1% formic acid), followed by centrifugation at 4° C. at 16000 g for 10 minutes. Supernatants were collected and analysed by LC-MS/MS. Mass spectrometer: Waters Acquity—Waters Xevo TQ-MS. Analytical column: Acquity UPLC HSS T3, 100×2.1 mm, 1.8 μm. Mobile phase A: 0.2% formic acid in water. Mobile phase B: 0.2% formic acid in acetonitrile. Gradient run from 95/5% to 60/40 in 5 min. Flow rate 0.3 mL/min. MRM monitoring of (I) in the study samples and in the analytical standards.

hepatocytes from human = experiment: Conversion to compound (I) in human hepatocytes; format: in vitro ADME; details: 1 μg/mL, 37° C., 0.25-60 minutes, FIG. 7b
Procedure: as §2, §3

[2] = Stability of the disulfate in acidic conditions (LCMS); format: physicochemical; details: LCMS with acidic eluent
human 5-HT2B receptor [3] = target: T1, human 5-HT2B receptor (Homo sapiens (Human), UniProt P41595); experiment: 5-HT2B radioligand binding assay ([125I](±)DOI); details: 0.2 nM [125I](±)DOI, read-out: 5-HT2B binding affinity (% inhibition of control, specific binding at concentration indicated)
Procedure: Membrane homogenates prepared from CHO cells expressing the human 5HT2B receptor were incubated for 60 min at room temperature with 0.2 nM [125I](±)DOI (1-(4-iodo-2, 5-dimethoxyphenyl)propan-2-amine) in the absence or presence of the test compound in a buffer containing 50 mM Tris-HCl (pH 7.4), 5 mM MgCl2, 10 μM pargyline and 0.1% ascorbic acid. Nonspecific binding is determined in the presence of 1 μM (±)DOI. Following incubation, the samples were filtered rapidly under vacuum through glass fiber filters (GF/B, Packard) presoaked with 0.3% polyethyleneimine (PEI) and rinsed several times with ice-cold 50 mM Tris-HCl using a 96-sample cell harvester (Unifilter, Packard). The filters were dried and counted for radioactivity in a scintillation counter (Topcount, Packard) using a scintillation cocktail (Microscint 0, Packard). The results are expressed as a percent inhibition of the control radioligand specific binding. The standard reference compound was (±)DOI, which was tested in each experiment at several concentrations to obtain a competition curve from which its IC50 is calculated.

[4] = in man after oral dosing; cited from earlier work
human D1 receptor = human D1 receptor (Homo sapiens (Human), UniProt P21728); experiment: Dopamine D1 receptor agonism, HTRF cAMP assay; format: cell-based; details: normalized to 30 uM dopamine = 100%
Procedure: Dopamine D1 receptor agonism was measured using a HTRF cAMP from CisBio using the protocol developed by HD Biosciences (China). Briefly, the assay is a homogeneous time resolved-fluorescence resonance energy transfer (HTRF) assay that measures production of cAMP by cells in a competitive immunoassay between native cAMP produced by cells and cAMP-labeled with XL-665. A cryptate-labeled anti-cAMP antibody visualizes the tracer. The assay was performed in accordance with instructions from manufacturer.
Test compounds were added to wells of microplates (384 format). HEK-293 cells expressing the human D1 receptor were plated at 1000 cells/well and incubated 30 min at room temperature. cAMP-d2 tracer was added to wells and followed by addition of Anti-cAMP antibody-cryptate preparation and incubated for 1 h at room temperature in dark. HTRF cAMP was measured by excitation of the donor with 337 nm laser (the “TRF light unit”) and subsequent (delay time 100 microseconds) measurement of cryptate and d2 emission at 615 nm and 665 nm over a time window of 200 microseconds with a 2000 microseconds time window between repeats/100 flashes). HRTF measurements were performed on an Envision microplate reader (PerkinElmer). The HTRF signal was calculated as the emission-ratio at 665 nm over 615 nm. The HTRF ratio readout for test compounds was normalized to 0% and 100% stimulation using control wells with DMSO-solvent or 30 uM dopamine. Test compound potency (EC50) was estimated by nonlinear regression using the sigmoidal dose-response (variable slope) using Xlfit 4 (IDBS, Guildford, Surrey, UK, model 205). y=(A+((B−A)/(1+((C/x)^D)))) where y is the normalized HTRF ratio measurement for a given concentration of test compound, x is the concentration of test compound, A is the estimated efficacy at infinite compound dilution, and B is the maximal efficacy. C is the EC50 value and D is the Hill slope coefficient. EC50 estimates were obtained from an independent experiment and the logarithmic average was calculated. Dopamine D2 Receptor Agonism

human 5-HT2B receptor [5] = target: T1, human 5-HT2B receptor; experiment: 5-HT2B agonist activity assay (IP1 production, HTRF); format: cell-based; details: read-out: 5-HT2B Emax
Procedure: Evaluation of the agonist activity of compounds (I), (Ia) and (Ib) at the human 5-HT2B receptor was performed by Eurofins/Cerep (France) measuring the compound effects on inositol monophosphate (IP1) production using the HTRF detection method. Briefly, the human 5-HT2B receptor was expressed in transfected CHO cells. The cells were suspended in a buffer containing 10 mM Hepes/NaOH (pH 7.4), 4.2 mM KCl, 146 mM NaCl, 1 mM CaCl2, 0.5 mM MgCl2, 5.5 mM glucose and 50 mM LiCl, then distributed in microplates at a density of 4100 cells/well and incubated for 30 min at 37° C. in the presence of buffer (basal control), test compound or reference agonist. For stimulated control measurement, separate assay wells contained 1 μM 5-HT. Following incubation, the cells were lysed and the fluorescence acceptor (fluorophen D2-labeled IP1) and fluorescence donor (anti-IP1 antibody labeled with europium cryptate) were added. After 60 min at room temperature, the fluorescence transfer was measured at lambda(Ex) 337 nm and lambda(Em) 620 and 665 nm using a microplate reader (Rubystar, BMG). The IP1 concentration was determined by dividing the signal measured at 665 nm by that measured at 620 nm (ratio). The results were expressed as a percent of the control response to 1 μM 5-HT. The standard reference agonist was 5-HT, which was tested in each experiment at several concentrations to generate a concentration-response curve from which its EC50 value is calculated as described above for dopamine functional assays.

[6] = Liu et al., Bioorganic Med. Chem. (2008); cited from earlier work
human D2 receptor = human D2 receptor (Homo sapiens (Human), UniProt P14416); experiment: Dopamine D2 receptor agonism, calcium mobilization assay; format: cell-based; details: normalized to 1 μM dopamine = 100%
Procedure: Dopamine D2 receptor agonism was measured using a calcium mobilization assay protocol developed by HD Biosciences (China). Briefly, HEK293/G15 cells expressing human D2 receptor were plated at a density of 15000 cells/well in clear-bottomed, Matrigel-coated 384-well plates and grown for 24 hrs at 37° C. in the presence of 5% CO2. The cells were incubated with calcium-sensitive fluorescent dye, Fluo8, for 60-90 minutes at 37° C. in the dark. Test compounds were prepared at 3-fold concentrated solution in 1×HBSS buffer with Ca^2+ and Mg^2+. Calcium Flux signal was immediately recorded after compounds were added from compound plate to cell plate at FLIPR (Molecular Devices). The fluorescence data were normalized to yield responses for no stimulation (buffer) and full stimulation (1 μM of dopamine) of 0% and 100% stimulation, respectively. Test compound potency (EC50) was estimated by nonlinear regression using the sigmoidal dose-response (variable slope) using Xlfit 4 (IDBS, Guildford, Surrey, UK, model 205). y=(A+((B−A)/(1+((C/x)^D)))) where y is the normalized ratio measurement for a given concentration of test compound, x is the concentration of test compound, A is the estimated efficacy at infinite compound dilution, and B is the maximal efficacy. C is the EC50 value and D is the Hill slope coefficient. EC50 estimates were obtained from independent experiment and the logarithmic average was calculated.

[7] = male, Han Wistar, rat, in vivo, po, 4 h
Procedure: as §1
Mass spectrometer (UPCLC-MS/MS) Waters Acquity I-Class-Waters Xevo TQ-S. Analytical column Acquity HSS T3 C18 50×2.1 mm, 1.8 μm. Mobile phase A: 10 mM NH4-Formate 0.2% formic acid:Acetonitril (95:5). Mobile phase B: 10 mM NH4-Formate 0.2% formic acid:Acetonitril (5:95). Gradient run from 95/5% to 5/95% in 2.40 min. Flow rate 0.3 mL/min. MRM detection of test items and the added analytical standards
The rats had unrestricted access to the diet. Male Han Wistar rats were administered a single dose of apomorphine either subcutaneously or orally by gavage, or administered a single dose of apormorphine conjugates orally by gavage.

T1 sequence (P41595 whole entry): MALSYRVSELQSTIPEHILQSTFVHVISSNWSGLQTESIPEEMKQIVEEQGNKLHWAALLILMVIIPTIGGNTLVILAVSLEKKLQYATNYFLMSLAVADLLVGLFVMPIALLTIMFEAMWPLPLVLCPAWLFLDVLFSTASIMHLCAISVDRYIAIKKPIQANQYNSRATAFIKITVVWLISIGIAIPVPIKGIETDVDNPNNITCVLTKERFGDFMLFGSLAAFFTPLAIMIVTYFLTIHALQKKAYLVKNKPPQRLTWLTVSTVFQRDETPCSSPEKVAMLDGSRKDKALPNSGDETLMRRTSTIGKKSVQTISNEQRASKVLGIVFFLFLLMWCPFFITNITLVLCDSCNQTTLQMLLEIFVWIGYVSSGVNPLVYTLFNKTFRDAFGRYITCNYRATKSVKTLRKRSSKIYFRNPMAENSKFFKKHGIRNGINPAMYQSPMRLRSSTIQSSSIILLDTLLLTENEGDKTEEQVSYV
Sequence of human D1 receptor (P21728 whole entry): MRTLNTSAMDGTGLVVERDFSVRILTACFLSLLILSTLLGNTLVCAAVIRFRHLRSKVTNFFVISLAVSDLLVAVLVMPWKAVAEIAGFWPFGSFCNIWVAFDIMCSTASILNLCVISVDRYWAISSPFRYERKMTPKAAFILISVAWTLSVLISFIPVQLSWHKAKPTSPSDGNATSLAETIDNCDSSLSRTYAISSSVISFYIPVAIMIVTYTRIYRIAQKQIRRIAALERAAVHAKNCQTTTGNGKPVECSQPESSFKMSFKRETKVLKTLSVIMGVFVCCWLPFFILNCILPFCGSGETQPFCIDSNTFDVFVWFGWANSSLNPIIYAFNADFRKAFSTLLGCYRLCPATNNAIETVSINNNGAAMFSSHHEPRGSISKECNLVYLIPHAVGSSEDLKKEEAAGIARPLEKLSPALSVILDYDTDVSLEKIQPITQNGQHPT
Sequence of human D2 receptor (P14416 whole entry): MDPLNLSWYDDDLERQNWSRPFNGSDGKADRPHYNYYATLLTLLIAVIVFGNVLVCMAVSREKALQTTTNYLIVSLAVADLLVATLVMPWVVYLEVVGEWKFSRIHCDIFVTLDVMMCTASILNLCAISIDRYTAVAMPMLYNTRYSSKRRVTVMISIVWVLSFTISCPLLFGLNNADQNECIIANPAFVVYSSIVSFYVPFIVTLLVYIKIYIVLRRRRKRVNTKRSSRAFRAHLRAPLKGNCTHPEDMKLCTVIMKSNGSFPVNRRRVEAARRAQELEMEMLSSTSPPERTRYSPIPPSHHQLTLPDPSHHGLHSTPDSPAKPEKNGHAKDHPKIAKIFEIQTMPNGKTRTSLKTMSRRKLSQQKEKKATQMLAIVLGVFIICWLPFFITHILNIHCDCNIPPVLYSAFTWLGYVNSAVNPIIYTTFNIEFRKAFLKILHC

conversion to compound (I) in rat hepatocytes (hepatocytes from rat): could not be detected | conversion to compound (I) in human hepatocytes (hepatocytes from human): could not be detected | stability in acidic conditions (in words) [2]: instability
SMILES: CCCN1CCC[C@@H]2Cc3c(ccc(OS(=O)(=O)O)c3OS(=O)(=O)O)C[C@H]21 [(Id-iiab), (4aR,10aR)-1-propyl-1,2,3,4,4a,5,10,10a-octahydrobenzo[g]quinoline-6,7-diyl bis(hydrogen sulfate)]
plasma profile of compound (I) after oral dosing (in words) [1]: slower absorption rate avoiding rapid peak concentrations accompanied by a sustained exposure of compound (I) in plasma

SMILES: CCCN1CCC[C@@H]2Cc3c(ccc(O[C@@H]4O[C@H](C(=O)O)[C@@H](O)[C@H](O)[C@H]4O)c3O[C@@H]3O[C@H](C(=O)O)[C@@H](O)[C@H](O)[C@H]3O)C[C@H]21 [(Id-iab), (2S,2′S,3S,3′S,4S,4′S,5R,5′R,6S,6′S)-6,6′-(((4aR,10aR)-1-propyl-1,2,3,4,4a,5,10,10a-octahydrobenzo[g]quinoline-6,7-diyl)bis(oxy))bis(3,4,5-trihydroxytetrahydro-2H-pyran-2-carboxylic acid)]
inhibition at 10 µM (human 5-HT2B receptor [3]): 17% | plasma profile of compound (I) after oral dosing (in words) [1]: slower absorption rate avoiding rapid peak concentrations accompanied by a sustained exposure of compound (I) in plasma | conversion to compound (I) in rat hepatocytes (hepatocytes from rat): time dependent conversion to compound (I) | conversion to compound (I) in human hepatocytes (hepatocytes from human): time dependent conversion to compound (I)

SMILES: CCCc1cc2c(s1)CN[C@@H]1CCc3cc(OC(C)=O)c(OC(C)=O)cc3[C@@H]21 [Adrogolide]
oral bioavailability [4]: ~4%

SMILES: CCCN1CCC[C@@H]2Cc3c(ccc(O)c3O)C[C@H]21 [(I), (4aR,10aR)-1-n-Propyl-1,2,3,4,4a,5,10,10a-octahydro-benzo[g]quinoline-6,7-diol, reference compound]
Emax (human D1 receptor): 99% | Emax (human 5-HT2B receptor [5]): 50% | oral bioavailability (in words) [6]: low oral bioavailability | Emax (human D2 receptor): 91%

apomorphine in plasma at one time point [7]: 916 pg/mL
SMILES: CN1CCc2cccc3c2[C@H]1Cc1ccc(O[C@@H]2O[C@H](C(=O)O)[C@@H](O)[C@H](O)[C@H]2O)c(O)c1-3 [(2S,3S,4S,5R,6S)-6-[[(6aR)-11-hydroxy-6-methyl-5,6,6a,7-tetrahydro-4H-dibenzo[de,g]quinolin-10-yl]oxy]-3,4,5-trihydroxy-tetrahydropyran-2-carboxylic acid]
